These results are taken from US20180273528A1 (LES LABORATOIRES SERVIER, priority 2015, published 2018).

A value given as a limit tells only on which side of the number the result lay.

In one experiment the target is T1, CLK1 (Homo sapiens, UniProt P49759).
T1 construct: full-length human kinases from Carna Biosciences; purchased Carna Biosciences 04-126
The experiment can be described thus: Kinase TR-FRET assay, CLK1. It is filed as biochemical. The conditions noted are these: full-length human kinase, 10 μM ATP. In a few lines:
(§1)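 Compounds tested at 0.1 nM to 30 μM in reaction buffer; reaction stopped with 10 mM EDTA. Phosphorylated MBP detected with 1 nM Europium-labelled anti-phospho-Thr232 antibody by TR-FRET.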
On the technique in general: TR-FRET usually uses a lanthanide donor and a delayed reading to cut background.

For a further experiment, the target named is T2, DYRK1B (Homo sapiens, UniProt Q9Y463).
T2 construct: full-length human kinases from Carna Biosciences; purchased Carna Biosciences 04-131
T2 sequence (Q9Y463 whole entry): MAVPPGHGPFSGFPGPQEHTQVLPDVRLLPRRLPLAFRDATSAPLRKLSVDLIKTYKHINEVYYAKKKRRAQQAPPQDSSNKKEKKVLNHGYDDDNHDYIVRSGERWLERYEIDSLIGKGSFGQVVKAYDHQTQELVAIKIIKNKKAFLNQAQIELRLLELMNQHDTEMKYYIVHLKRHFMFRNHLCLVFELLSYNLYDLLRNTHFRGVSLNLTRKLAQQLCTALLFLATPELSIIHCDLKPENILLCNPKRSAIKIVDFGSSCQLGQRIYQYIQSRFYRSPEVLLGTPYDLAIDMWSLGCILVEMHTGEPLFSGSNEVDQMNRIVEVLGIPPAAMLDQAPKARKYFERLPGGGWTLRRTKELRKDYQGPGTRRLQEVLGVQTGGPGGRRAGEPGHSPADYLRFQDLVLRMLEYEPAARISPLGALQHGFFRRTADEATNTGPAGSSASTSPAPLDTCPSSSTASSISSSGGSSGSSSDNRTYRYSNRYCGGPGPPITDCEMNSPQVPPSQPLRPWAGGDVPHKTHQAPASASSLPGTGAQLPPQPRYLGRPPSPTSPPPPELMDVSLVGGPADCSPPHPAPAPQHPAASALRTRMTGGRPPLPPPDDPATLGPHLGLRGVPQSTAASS
The experiment can be described thus: Kinase TR-FRET assay, DYRK1B. The conditions noted are these: full-length human kinase, 10 μM ATP. It is filed as biochemical. In a few lines: as §1

A further experiment concerns the target T3, CDK9 (Homo sapiens, UniProt P50750).
T3 construct: full-length human kinases from Carna Biosciences; purchased Carna Biosciences 04-110
The experiment can be described thus: Kinase TR-FRET assay, CDK9. To be noted: full-length human kinase, 10 μM ATP. It is filed as biochemical. In a few lines: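 Full-length human CDK9 (0.9 ng/μl) incubated 100 min at room temperature with 10 μM ATP, 100 nM ULight-MBP peptide and compound (0.1 nM–30 μM) in 50 mM HEPES pH 7.4, 1 mM EGTA, 10 mM MgCl2, 2 mM DTT, 0.01% Tween20. Stopped with 10 mM EDTA, then 1 nM Eu-anti-phospho-Thr232 MBP antibody added for 1 h. TR-FRET read at 665/620 nm with 340 nm excitation.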

For experiment [1], the target named is T4, DYRK1A (Homo sapiens, UniProt Q13627). The experiment can be described thus: Kinase TR-FRET assay, DYRK1A. The conditions noted are these: full-length human kinase, 10 μM ATP. Also on record: full-length, wild-type human DYRK1A (NM_001396) with an HA tag; expressed in transfected cells; host or cells: human U2-OS osteosarcoma cells, transient transfection of a pcDNA3.1 plasmid. The format is biochemical. The method, boiled down:
as §1

Experiment [2] concerns the target T4, DYRK1A. The experiment can be described thus: Cellular DYRK1 autophosphorylation assay in U2-OS cells. It is filed as cell-based. Further details: full-length, wild-type human DYRK1A (NM_001396) with an HA tag; expressed in transfected cells; host or cells: human U2-OS osteosarcoma cells, transient transfection of a pcDNA3.1 plasmid. The conditions noted are these: U2-OS cells transfected with HA-tagged human DYRK1A, 5 hours exposure; read-out: IC50 (μM) P-Ser520-Dyrk1A -Cell assay. In a few lines:
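U2-OS cells treated with a compound concentration range for 5 h. Phospho-Ser520-DYRK1A measured by western blot densitometry or Mesoscale ELISA. IC50 from dose-response curves; for blots, ratio of phospho-Ser520 to total DYRK1A signal.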

For experiment [3], the target named is T5, His-TEV-DYRK1A Kinase domain (aa127-485) (Homo sapiens, UniProt Q13627).
T5 construct: His-TEV-DYRK1A Kinase domain (aa127-485); His tag (N); TEV protease cleavage site (N)
The experiment can be described thus: Kinase ADP assay (ADP Hunter), DYRK1A kinase domain. To be noted: 20 μM ATP. The format is biochemical. The method, boiled down:
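Compounds incubated 10 min at 30 °C with 20 nM enzyme, 40 μM peptide substrate and 20 μM ATP in pH 7.4 Hepes buffer with 10 mM MgCl2. ADP formed detected by ADP Hunter Plus reagents after 20 min at 30 °C, fluorescence read at 590 nm.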

T3 sequence (P50750 whole entry): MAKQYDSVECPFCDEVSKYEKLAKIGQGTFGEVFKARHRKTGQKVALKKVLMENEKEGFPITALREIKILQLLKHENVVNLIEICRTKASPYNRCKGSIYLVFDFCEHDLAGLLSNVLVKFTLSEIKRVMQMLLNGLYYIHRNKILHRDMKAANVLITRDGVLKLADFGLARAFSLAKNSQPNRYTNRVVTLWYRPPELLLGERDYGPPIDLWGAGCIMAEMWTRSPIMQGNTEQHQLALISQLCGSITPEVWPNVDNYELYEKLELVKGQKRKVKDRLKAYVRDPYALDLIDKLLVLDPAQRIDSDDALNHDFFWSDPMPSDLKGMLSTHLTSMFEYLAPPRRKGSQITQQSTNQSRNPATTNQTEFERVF
T3 sequence (O60563 whole entry partner): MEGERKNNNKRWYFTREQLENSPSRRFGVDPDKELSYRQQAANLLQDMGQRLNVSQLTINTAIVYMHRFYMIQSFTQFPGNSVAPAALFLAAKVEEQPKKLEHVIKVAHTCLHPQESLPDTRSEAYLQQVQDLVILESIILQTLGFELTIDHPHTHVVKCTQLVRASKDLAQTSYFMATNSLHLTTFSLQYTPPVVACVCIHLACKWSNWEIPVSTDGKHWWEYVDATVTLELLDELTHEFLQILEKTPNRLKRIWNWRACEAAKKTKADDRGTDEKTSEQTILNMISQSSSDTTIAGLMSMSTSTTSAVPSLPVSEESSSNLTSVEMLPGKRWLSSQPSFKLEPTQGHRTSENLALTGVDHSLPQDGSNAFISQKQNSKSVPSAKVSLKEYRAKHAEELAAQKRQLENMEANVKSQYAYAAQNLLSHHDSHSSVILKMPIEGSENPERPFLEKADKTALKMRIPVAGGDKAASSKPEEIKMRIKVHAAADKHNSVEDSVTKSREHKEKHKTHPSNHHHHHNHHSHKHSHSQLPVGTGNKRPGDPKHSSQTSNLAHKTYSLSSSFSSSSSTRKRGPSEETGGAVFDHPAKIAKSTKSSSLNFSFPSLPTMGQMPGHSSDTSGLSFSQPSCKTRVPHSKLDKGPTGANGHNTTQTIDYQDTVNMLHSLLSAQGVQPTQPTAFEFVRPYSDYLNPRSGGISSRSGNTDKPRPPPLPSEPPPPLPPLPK
T1 sequence (P49759 1-526 isoform P49759-3): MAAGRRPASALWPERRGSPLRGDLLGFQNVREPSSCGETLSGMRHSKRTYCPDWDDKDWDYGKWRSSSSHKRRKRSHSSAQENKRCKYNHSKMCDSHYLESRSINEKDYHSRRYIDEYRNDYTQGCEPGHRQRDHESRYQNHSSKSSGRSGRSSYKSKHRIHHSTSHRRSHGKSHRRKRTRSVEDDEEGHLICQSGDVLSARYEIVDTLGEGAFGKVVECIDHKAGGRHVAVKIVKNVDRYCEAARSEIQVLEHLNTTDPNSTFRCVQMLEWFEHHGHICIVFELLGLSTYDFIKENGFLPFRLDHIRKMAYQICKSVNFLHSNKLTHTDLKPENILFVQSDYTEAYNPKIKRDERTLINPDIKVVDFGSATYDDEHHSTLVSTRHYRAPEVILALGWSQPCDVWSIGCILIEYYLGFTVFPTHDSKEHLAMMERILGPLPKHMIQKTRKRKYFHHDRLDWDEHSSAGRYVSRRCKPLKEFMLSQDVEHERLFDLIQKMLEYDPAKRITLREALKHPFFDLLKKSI

Turning to `COc1ccccc1OCCn1c(C)nc2ccc(-c3cc(N)nc(N)c3)nc21` [Example 206, 4-{3-[2-(2-methoxyphenoxy)ethyl]-2-methyl-3H-imidazo[4,5-b]pyridin-5-yl}pyridine-2,6-diamine], the 50% inhibitory concentration (IC50) is 0.028 µM at CLK1; 0.007 µM at DYRK1B; more than 3 µM on CDK9; 0.005 µM at DYRK1A [1]; 0.094 µM at DYRK1A [2]; 0.017 µM in experiment [3].
Consider `Cc1nc2ccc(-c3cc(N)nc(N)c3)nc2n1CCOc1ccc2[nH]ccc2c1` [Example 210, 4-{3-[2-(1H-indol-5-yloxy)ethyl]-2-methyl-3H-imidazo[4,5-b]pyridin-5-yl}pyridine-2,6-diamine], for which the IC50 at CLK1 is 0.018 µM; against DYRK1B it was 0.006 µM; against CDK9 it was 1.01 µM; at DYRK1A [1] it was 0.003 µM; on DYRK1A [2], 0.047 µM; in experiment [3] it was 0.008 µM.
For the molecule `Cc1nc2ccc(-c3cc(N)nc(N)c3)nc2n1CCOc1c(F)cccc1F` [Example 212, 4-{3-[2-(2,6-difluorophenoxy)ethyl]-2-methyl-3H-imidazo[4,5-b]pyridin-5-yl}pyridine-2,6-diamine], the IC50 against CLK1 was 0.017 µM; at DYRK1B, 0.04 µM; on CDK9, more than 10 µM; against DYRK1A [1] it was 0.003 µM; at DYRK1A [2] it was 0.083 µM; in experiment [3], 0.007 µM.
On to `Nc1cc(-c2ccc3nc(Cl)n(C4CCCC4)c3n2)cc(N)n1` [Example 220, 4-(2-chloro-3-cyclopentyl-3H-imidazo[4,5-b]pyridin-5-yl)pyridine-2,6-diamine], for which the concentration for half-maximal inhibition (IC50) was 0.019 µM on CLK1; 0.013 µM against DYRK1B; 0.724 µM against CDK9; 0.003 µM at DYRK1A [1]; 0.075 µM at DYRK1A [2]; 0.011 µM in experiment [3].
In the case of `N#Cc1nc2ccc(-c3cc(N)nc(N)c3)nc2n1C1CCCC1` [Example 221, 3-cyclopentyl-5-(2,6-diaminopyridin-4-yl)-3H-imidazo[4,5-b]pyridine-2-carbonitrile], the concentration for half-maximal inhibition (IC50) on CLK1 came out at 0.016 µM; on DYRK1B, 0.012 µM; against CDK9, 0.317 µM; on DYRK1A [1], 0.027 µM; on DYRK1A [2], 0.043 µM; in experiment [3], 0.008 µM.
`N#Cc1nc2ccc(-c3cc(N)nc(N)c3)nc2n1CCOc1ccccc1` [Example 222, 5-(2,6-diaminopyridin-4-yl)-3-(2-phenoxyethyl)-3H-imidazo[4,5-b]pyridine-2-carbonitrile]: the IC50 was 0.062 µM against CLK1; 0.031 µM against DYRK1B; more than 3 µM at CDK9; 0.018 µM at DYRK1A [1]; 0.244 µM on DYRK1A [2]; 0.023 µM in experiment [3].
Turning to `N#Cc1nc2ccc(-c3cc(N)nc(N)c3)nc2n1CCCC(F)(F)F` [Example 226, 5-(2,6-diaminopyridin-4-yl)-3-(4,4,4-trifluorobutyl)-3H-imidazo[4,5-b]pyridine-2-carbonitrile], the half-maximal inhibitory concentration (IC50) on CLK1 is 0.023 µM; on DYRK1B, 0.01 µM; against CDK9 it was 0.713 µM; against DYRK1A [1] it was 0.005 µM; at DYRK1A [2], 0.148 µM; in experiment [3], 0.013 µM.

For orientation: IC50 means the concentration needed to halve the response being measured.
